Assay results taken from US11840686B2, “Modulation of prekallikrein (PKK) expression” (Ionis Pharmaceuticals, Inc., priority 2013, dated 2023).
Strand notation (5' to 3'): a small letter for the sugar, then the base; units joined by * are phosphorothioate-linked, units joined directly phosphodiester-linked; [ ] holds rarer units or linkages, { } end groups; capitals alone tell only the bases. e = 2'-O-(2-methoxyethyl) (MOE); [5mC] = 5-methylcytosine; d = 2'-deoxy (DNA)

Key:
vascular leakage = assay: Vascular leakage, plasma Evans Blue OD620, captopril model (Example 13); assay type: in vivo, mouse; conditions: for Percentage of OD620 nm of Evans Blue dye compared to the PBS basal control, Plasma: captopril Yes
Description: Groups 4, 5, 6, 7, 8, and 9 consisted of 8 mice each and were treated with 2.5 mg/kg, 5 mg/kg, 10 mg/kg, 20 mg/kg, 40 mg/kg, or 80 mg/kg (corresponding to 5 mg/kg, 10 mg/kg, 20 mg/kg, 40 mg/kg, 80 mg/kg, or 160 mg/kg per week), respectively of ISIS 482584 administered subcutaneously twice a week for 3 weeks. At the end of the treatment period, the mice of all the groups were intraperitoneally administered 20 μg of captopril. Groups 4-9 served as the experimental treatment groups for examining the effect of varying doses of ISIS 482584 on captopril-induced vascular permeability.
All the groups were then injected with 30 mg/kg of Evans Blue solution in the tail vein. The mice were sacrificed 30 min after the Evans Blue solution administration and colons, feet, ears, and intestines were harvested. Blood samples were taken through cardiac puncture.
The blood drawn through cardiac puncture was immediately mixed with 3 times the volume of ice-cold ethanol. The solution was centrifuged at 15,000 g for 20 minutes at 4° C. to remove cell debris and precipitated plasma proteins. The ethanol extracts were further purified by ultra-filtration through a 10 kDa MWCO filter. The color intensity of the ethanol extracted plasma solution was then measured at OD620 nm. The results are presented in Table 67 as percentage increase or decrease of the OD values of the Group 1 PBS control.

[1] = system: captopril and ISIS 461756-induced vascular permeability; assay: Evans Blue vascular permeability in captopril and ISIS 461756-induced angioedema mouse models (Example 11); assay type: in vivo; conditions: for OD600 nm of Evans Blue dye, Colons / OD600 nm of Evans Blue dye, Ears / OD600 nm of Evans Blue dye, Feet / OD600 nm of Evans Blue dye, Intestines: captopril Yes
From the text: Hereditary angioedema (HAE) is characterized by local swelling and increase in vascular permeability in subcutaneous tissues (Morgan, B. P. N. Engl. J. Med. 363: 581-83, 2010). It is caused by a deficiency of the C1 inhibitor, a protein of the complement system. Two mouse models were used in this study including an established mouse model of C1-INH deficiency and a captopril-induced edema model, both of which cause vascular permeability, a hallmark of HAE. Reversal of vascular permeability is accompanied by increased plasma levels of high molecular weight kininogen (HMWK).
In the first model, angioedema was induced by treatment with Captopril, a known antihypertensive agent, which increases vascular permeability in mice and replicates the pathology of hereditary angioedema.
In the second model, angioedema was induced by treatment with ISIS 461756, an antisense oligonucleotide which targets murine C1 inhibitor mRNA, which increases vascular permeability in mice and replicates the pathology of hereditary angioedema. ISIS 461756 (SEQ ID NO: 2245; […]) is a 5-10-5 MOE gapmer targeting nucleosides 1730-1749 of NM_009776.3 (SEQ ID NO: 2243).
The effect of HOE-140 and ISIS 482584, an antisense oligonucleotide inhibitor of PKK, were evaluated in the Captopril and ISIS 461756-induced mouse models of vascular permeability. Some of the murine groups were treated with HOE-140, a selective antagonist of the bradykinin B2 receptor, which blocks vasodilation and vascular permeability (Cruden and Newby, Expert Opin. Pharmacol. 9: 2383-90, 2008). Other mice were treated with ISIS 482584, which inhibits PKK mRNA expression. The effect of treatment with HOE-140 was compared with the effect of treatment with ISIS 482584.
Group 1 consisted of 4 C57BL/6J-Tyrc-2J mice treated with PBS administered subcutaneously twice a week for 4 weeks. No other treatment was administered to Group 1 which served as a control group to measure the basal level of vascular permeability.
Group 2 consisted of 8 C57BL/6J-Tyrc-2J mice treated with PBS administered subcutaneously twice a week for 4 weeks. At the end of the treatment, the mice were intraperitoneally administered 20 μg of captopril. Group 2 served as a PBS control group for captopril-induced vascular permeability.
(§1) Group 3 consisted of 8 C57BL/6J-Tyrc-2J mice treated with PBS administered subcutaneously twice a week for 4 weeks. On day 14, the mice were treated with 50 mg/kg of the antisense oligonucleotide targeting C1 inhibitor, ISIS 461756, administered subcutaneously twice a week for 2 weeks. At the end of the treatment period, the mice were intraperitoneally administered 20 μg of captopril. Group 3 served as a PBS control group for captopril and ISIS 461756-induced vascular permeability.
Group 4 consisted of 8 C57BL/6J-Tyrc-2J mice treated with PBS administered subcutaneously twice a week for 4 weeks. On day 14, the mice were treated with 50 mg/kg of the antisense oligonucleotide targeting C1 inhibitor, ISIS 461756, administered subcutaneously twice a week for 2 weeks. At the end of the treatment period, the mice were intraperitoneally administered 20 μg of captopril. The mice were then also intraperitoneally administered 30 μg of HOE-140. Group 4 served as a positive control for inhibition of vascular permeability with HOE-140.
as §1, with “5” for “3”, “40 mg/kg of control oligonucleotide ISIS 141923, a 5-10-5 MOE gapmer with no known murine target, ([…]; SEQ ID NO: 2246)” for “PBS”, “a” for “a PBS”, “permeability. […]” for “permeability.”

[2] = ISIS 461756 Yes, ISIS oligonucleotides 40 mg/kg sc twice a week 4 weeks, HOE-140 30 μg ip
[3] = ISIS 461756 No, 40 mg/kg sc twice a week 4 weeks

Compound	Percentage of OD620 nm of Evans Blue dye compared to the PBS basal control, Plasma (vascular leakage; HOE-140 30 μg ip)	OD600 nm of Evans Blue dye, Colons [1, 2]	OD600 nm of Evans Blue dye, Ears [1, 2]	OD600 nm of Evans Blue dye, Feet [1, 2]	OD600 nm of Evans Blue dye, Intestines [1, 2]	vascular leakage (vascular leakage; 160 mg/kg/week and 80 mg/kg/week, vs PBS negative control treated with captopril)	Percentage of OD620 nm of Evans Blue dye compared to the PBS basal control, Plasma (vascular leakage; dose 5 mg/kg)	Percentage of OD620 nm of Evans Blue dye compared to the PBS basal control, Plasma (vascular leakage; dose 10 mg/kg)	Percentage of OD620 nm of Evans Blue dye compared to the PBS basal control, Plasma (vascular leakage; dose 20 mg/kg)	Percentage of OD620 nm of Evans Blue dye compared to the PBS basal control, Plasma (vascular leakage; dose 40 mg/kg)	Percentage of OD620 nm of Evans Blue dye compared to the PBS basal control, Plasma (vascular leakage; dose 80 mg/kg)	Percentage of OD620 nm of Evans Blue dye compared to the PBS basal control, Plasma (vascular leakage; dose 160 mg/kg)	vascular permeability ([1]; 40 mg/kg s.c. twice a week for 4 weeks, mice treated with captopril or captopril and ISIS 461756, vs PBS controls)	OD600 nm of Evans Blue dye, Colons [1, 3]	OD600 nm of Evans Blue dye, Ears [1, 3]	OD600 nm of Evans Blue dye, Feet [1, 3]	OD600 nm of Evans Blue dye, Intestines [1, 3]
NC(N)=NCCC[C@@H](N)C(=O)N[C@@H](CCCN=C(N)N)C(=O)N1CCC[C@H]1C(=O)N1C[C@H](O)C[C@H]1C(=O)NCC(=O)N[C@@H](Cc1cccs1)C(=O)N[C@@H](CO)C(=O)N1Cc2ccccc2C[C@@H]1C(=O)N1[C@H](C(=O)N[C@@H](CCCN=C(N)N)C(=O)O)C[C@@H]2CCCC[C@@H]21 [HOE-140, Icatibant, reference compound]	5%	0.14	0.09	0.07	0.18												
ISIS 482584: 5-10-5 MOE gapmer targeting murine PKK, GGCATATTGGTTTTTGGAAT; SEQ ID NO: 2244 (antisense eG*eG*e[5mC]*eA*eT*dA*dT*dT*dG*dG*dT*dT*dT*dT*dT*eG*eG*eA*eA*eT)		0.21	0.06	0.07	0.34	less vascular leakage	−23%	−20%	−26%	−31%	40%	91%	prevents vascular permeability	0.27	0.14	0.07	0.30
